# Test results from paper PMC7076013 (Scientific Reports, 2020).
# Tests used:
# [1] = test system: B16F10, mouse metastatic melanoma; test: CV (crystal violet) cell viability, B16F10; assay type: cell-based; details: for IC50: 48 h; for Selectivity index B16F10: IC50 macrophages / IC50 cancer
# Method: (§1) Both melanoma and colon cancer are tumor types tightly connected with inflammation, while the expression of COX-2 in the selected cell lines was highly variable. Since a lot of discrepancies were found in the literature concerning the expression of this enzyme[5],[48]–[53], both COX-1 and COX-2 expression was analyzed by Western blot. […] The cells were treated with a wide range of doses of 4a–c, 5, and 6 for 48 h and cell viability was determined by MTT (3-(4,5-dimethylthiazol-2-yl)-2,5-diphenyltetrazolium bromide) and CV (crystal violet) assays. The obtained IC50 values were similar for both assays (Table 1).
# (§2) Reagents were obtained from Sigma (St. Louis, MO) unless indicated otherwise. Annexin V - FITC (AnnV) was acquired from Biotium (Hayward, CA) and Apostat from R&D (R&D S ystems, Minneapolis, MN USA). […] After being detached b y tr ypsinization, cells were seeded in defined number as follows: 2.5 × 10^3 cells/well in 96-well plates for viability assessment and 2 × 10^4 cells/well in 24-well plates for flow cytometry. Peritoneal resident […]
# (§3) for Biolo gical Research “Siniša Stanković” b y peritoneal lav age with an ice- cold phosphate buffer solution (PBS). The handling of animals and protocol for obtaining cells is in agreement with the rules of the European Union and approved by the Institutional Animal Care and Use Committee at IBISS (02- 09/1 6). Cells were counted and seeded in 96-well plates and incubat ed overnight. Before treatment, non- adherent cells were removed. Compounds 4a- c, 5 and 6 were dissolved in DMSO and stored at −20 °C for a m onth. Working solutions were freshl y prepared in 10% FCS-RPMI-1640. Controls were treated with culture medium containing the equivalent […]
# (§4) 3.2. Cell viability tests.
# (§5) The number of viable cel ls in culture was estimated by the MTT (3-(4,5- dimethylthiazol- 2-yl ) - 2,5- diphenyltetrazolium bromide) and CV (crystal violet) tests. Cells were incubated in the presence of compounds 4a- c, 5 and 6 for 48 h, then the viability was measured as described.4 […]
# (§6) The results were ex pressed as a p er centage of a v alue obtained for the untr eated control cells that was arbitrarily set to be 100%. A non- linear regression analysis of obtained results was done b y using Gr aphPad Prism software to calculat e IC50 values. […]
# human recombinant COX-2 = target: T1, human recombinant COX-2 (Homo sapiens, UniProt P35354); test: COX Fluorescent Inhibitor Screening Assay, COX-2; assay type: biochemical; details: human recombinant COX-2, Cayman kit 700100
# T1 construct: purchased Cayman Chemical Item No. 700100 (assay kit)
# T1 sequence (P35354 18-604): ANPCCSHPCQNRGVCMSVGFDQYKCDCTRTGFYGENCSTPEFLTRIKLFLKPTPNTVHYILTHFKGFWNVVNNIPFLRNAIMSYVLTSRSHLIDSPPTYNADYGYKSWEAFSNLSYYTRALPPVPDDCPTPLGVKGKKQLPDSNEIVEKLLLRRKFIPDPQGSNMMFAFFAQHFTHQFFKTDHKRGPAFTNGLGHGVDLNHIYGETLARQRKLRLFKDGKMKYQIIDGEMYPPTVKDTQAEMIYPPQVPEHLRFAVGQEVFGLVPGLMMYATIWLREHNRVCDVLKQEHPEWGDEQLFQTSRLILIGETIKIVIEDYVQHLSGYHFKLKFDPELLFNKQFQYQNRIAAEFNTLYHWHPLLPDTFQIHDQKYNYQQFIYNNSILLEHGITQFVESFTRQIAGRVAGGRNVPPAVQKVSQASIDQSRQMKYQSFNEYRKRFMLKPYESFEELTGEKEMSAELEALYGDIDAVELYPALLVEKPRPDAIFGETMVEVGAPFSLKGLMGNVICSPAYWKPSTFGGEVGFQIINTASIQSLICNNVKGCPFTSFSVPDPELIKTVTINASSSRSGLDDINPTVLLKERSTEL
# Method: (§7) The synthesized compounds were tested in vitro for their potential to inhibit ovine COX-1 and human recombinant COX-2.
# (§8) *All compounds were measured with the Cytation 5 plate reader and the "COX Fluorescent Inhibitor […]
# (§9) chemi cals, USA) " according to the manufacturer's
# (§10) Error bars indicate standard error mean (SEM) obtained from two measurements at each concentration.
# (§11) (1 picture or pasted object on this page, not shown here)
# ovine COX-1 = target: T2, ovine COX-1 (Ovis aries, UniProt P05979); test: COX Fluorescent Inhibitor Screening Assay, COX-1; assay type: biochemical; details: ovine COX-1, Cayman kit 700100
# T2 construct: purchased Cayman Chemical Item No. 700100 (assay kit)
# T2 sequence (P05979 25-600): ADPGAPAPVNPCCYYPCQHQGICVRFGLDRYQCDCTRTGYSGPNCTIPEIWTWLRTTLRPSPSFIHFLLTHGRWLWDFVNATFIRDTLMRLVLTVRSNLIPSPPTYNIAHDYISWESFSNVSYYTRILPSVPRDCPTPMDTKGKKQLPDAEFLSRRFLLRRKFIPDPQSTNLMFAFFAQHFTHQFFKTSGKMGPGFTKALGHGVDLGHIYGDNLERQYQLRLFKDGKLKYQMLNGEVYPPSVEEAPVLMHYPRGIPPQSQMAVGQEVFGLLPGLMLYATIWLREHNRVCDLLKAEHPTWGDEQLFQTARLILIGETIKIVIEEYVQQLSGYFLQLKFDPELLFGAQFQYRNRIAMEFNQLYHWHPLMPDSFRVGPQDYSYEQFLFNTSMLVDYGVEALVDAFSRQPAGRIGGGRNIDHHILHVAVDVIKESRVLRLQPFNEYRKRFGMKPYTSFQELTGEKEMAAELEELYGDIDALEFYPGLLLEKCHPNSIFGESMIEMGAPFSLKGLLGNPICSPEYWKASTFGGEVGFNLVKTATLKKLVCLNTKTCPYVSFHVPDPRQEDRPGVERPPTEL
# Method: as §7, §8, §9, §10, §11
# A375, human melanoma = test: CV (crystal violet) cell viability, A375; assay type: cell-based; details: for IC50: 48 h; for Selectivity index A375: IC50 macrophages / IC50 cancer
# Method: as §1, §2, §3, §4, §5, §6
Substance,IC50 [1],IC50 (human recombinant COX-2),IC50 (ovine COX-1),"IC50 (A375, human melanoma)",Selectivity index B16F10 [1],"Selectivity index A375 (A375, human melanoma)"
"4-[4-(methylnitrooxy)phenyl]-3-(1,2-dicarba-closo-dodecaboranyl)furan-2(5 H)-one [Compound 5]",7.65 ± 0.26 µM,> 100 µM,> 100 µM,4.7 ± 0.3 µM,4.8,7.9
"R,S-7-(2-oxo-4-(4-sulfamoylphenyl)-2,5-dihydrofuran-3-yl)-7,8-dicarba-nido-dodeca-hydroundecaborate(–1) sodium [Compound 6]",> 50 µM,69.6 µM,> 100 µM,> 50 µM,–,–

# Second part, led by results:
IC50 [1],IC50 (human recombinant COX-2),IC50 (ovine COX-1),"IC50 (A375, human melanoma)",Substance,Selectivity index B16F10 [1],"Selectivity index A375 (A375, human melanoma)"
26.6 ± 2.62 µM,> 100 µM,> 100 µM,14.1 ± 0.75 µM,"4-[4-(methylsulfonyl)phenyl]-3-(1,2-dicarba-closo-dodecaboranyl)furan-2(5H)-one [Compound 4b]",2.5,4.7
26.5 ± 2.62 µM,> 100 µM,> 100 µM,10.5 ± 0.75 µM,"4-[4-(hydroxymethyl)phenyl]-3-(1,2-dicarba-closo-dodecaboranyl)furan-2(5H)-one [Compound 4c]",2.5,6.3
25.4 ± 2.41 µM,> 100 µM,> 100 µM,16 ± 1.65 µM,"4-phenyl-3-(1,2-dicarba-closo-dodecaboranyl)furan-2(5 H)-one [Compound 4a]",1.9,3.1
